Our source for the IC50 and ED50 values is ChEMBL document CHEMBL1128541 (J Med Chem, 1995).

pIC50: −log10 of the molar value.

The target in one test is T1, Thromboxane-A synthase (Homo sapiens, UniProt P24557).
T1 sequence (P24557 whole entry): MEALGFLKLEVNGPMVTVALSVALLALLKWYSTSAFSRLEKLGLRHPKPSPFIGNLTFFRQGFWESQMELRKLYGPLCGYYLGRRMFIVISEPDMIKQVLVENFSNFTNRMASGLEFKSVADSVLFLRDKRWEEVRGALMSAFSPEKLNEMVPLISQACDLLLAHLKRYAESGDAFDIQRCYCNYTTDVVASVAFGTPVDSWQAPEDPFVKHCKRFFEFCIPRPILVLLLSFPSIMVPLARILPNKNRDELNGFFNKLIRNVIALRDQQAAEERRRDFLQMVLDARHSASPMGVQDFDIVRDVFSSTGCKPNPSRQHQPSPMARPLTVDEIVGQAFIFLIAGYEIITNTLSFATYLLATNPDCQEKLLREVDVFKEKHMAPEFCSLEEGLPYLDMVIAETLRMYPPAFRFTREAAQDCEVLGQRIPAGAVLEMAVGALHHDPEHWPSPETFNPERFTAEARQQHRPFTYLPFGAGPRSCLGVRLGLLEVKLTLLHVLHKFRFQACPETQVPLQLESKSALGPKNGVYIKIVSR
The experiment in a line: In vitro inhibition of Thromboxane A2 synthase in human platelet.

The target of test [1] is cGMP-specific 3',5'-cyclic phosphodiesterase (Homo sapiens, UniProt O76074). The experiment in a line: Inhibitory activity against phosphodiesterase 5 from human platelets.
Test [2] is filed under the species Rattus norvegicus. In words: In vitro inhibition of Thromboxane B2 production in A-23,187-Induced Rat Whole Blood. It counts as functional.
In a further test the target is Phosphodiesterase 3 (Homo sapiens, UniProt Q14432+Q13370). The experiment in a line: Inhibition of human platelet Phosphodiesterase 3.
A further test deals with Cyclooxygenase (Homo sapiens, UniProt P35354+P23219). The experiment in a line: Inhibitory activity against Prostaglandin G/H synthase. It counts as protein assay.
The species named for test [3] is Rattus norvegicus. The experiment in a line: Ex vivo inhibition of Thromboxane B2 production in A-23,187-Induced Rat Whole Blood. It counts as functional.
The target of the next test is Phosphodiesterase 1 (Bos taurus, UniProt Q01061+P14100). The experiment in a line: Inhibition of bovine aorta Phosphodiesterase 1. It counts as protein assay.
In test [4] the target is T2, cGMP-dependent 3',5'-cyclic phosphodiesterase (Rattus norvegicus, UniProt Q01062).
T2 sequence (Q01062 whole entry): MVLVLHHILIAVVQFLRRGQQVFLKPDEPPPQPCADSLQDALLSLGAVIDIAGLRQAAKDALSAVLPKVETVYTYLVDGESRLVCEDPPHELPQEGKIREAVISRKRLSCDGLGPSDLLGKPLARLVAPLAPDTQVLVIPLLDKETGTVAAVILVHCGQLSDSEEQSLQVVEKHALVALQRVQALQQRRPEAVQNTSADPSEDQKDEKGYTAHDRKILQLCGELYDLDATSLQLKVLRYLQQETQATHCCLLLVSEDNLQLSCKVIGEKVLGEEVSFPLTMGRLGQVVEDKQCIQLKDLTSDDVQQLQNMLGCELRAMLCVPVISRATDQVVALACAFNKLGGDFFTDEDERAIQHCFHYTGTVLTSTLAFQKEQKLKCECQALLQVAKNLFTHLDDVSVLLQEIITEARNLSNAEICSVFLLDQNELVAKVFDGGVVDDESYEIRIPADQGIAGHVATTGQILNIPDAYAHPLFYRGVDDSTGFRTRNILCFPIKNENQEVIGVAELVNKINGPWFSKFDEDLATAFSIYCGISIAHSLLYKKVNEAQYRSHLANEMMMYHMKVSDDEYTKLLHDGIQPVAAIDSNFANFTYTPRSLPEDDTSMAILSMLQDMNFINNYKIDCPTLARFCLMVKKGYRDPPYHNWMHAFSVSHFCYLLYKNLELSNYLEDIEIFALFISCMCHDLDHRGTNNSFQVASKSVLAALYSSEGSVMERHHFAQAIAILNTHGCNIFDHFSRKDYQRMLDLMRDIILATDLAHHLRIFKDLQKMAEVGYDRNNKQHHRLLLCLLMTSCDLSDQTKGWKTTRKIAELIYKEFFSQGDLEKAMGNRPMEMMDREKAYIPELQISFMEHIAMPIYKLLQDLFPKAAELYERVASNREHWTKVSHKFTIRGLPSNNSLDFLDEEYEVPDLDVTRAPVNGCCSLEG
In words: Inhibition of rat brain Phosphodiesterase 2.

The target in another test is Phosphodiesterase 4 (Rattus norvegicus, UniProt P14270+P14646+P14644+P54748). In words: Inhibition of rat kidney Phosphodiesterase 4. It is filed as protein assay.
A further test is filed under the species Homo sapiens. The experiment in a line: In vitro inhibition of Thromboxane A2 synthesis in human platelet. It counts as functional.

For `c1ccc(CNc2nc(-n3ccnc3)nc3ccccc23)cc1`, the pIC50 against Thromboxane-A synthase was 6.66; in test [1], 6.59; in the test filed under Rattus norvegicus [2], 5.96; in [4] it was 4.60. Moreover, the IC50 at Phosphodiesterase 3 is 50 µM; against Cyclooxygenase it was 51 µM; on Phosphodiesterase 1, 14 µM; at Phosphodiesterase 4, 3.1 µM. Besides, the 50% effect level in the test listed under Rattus norvegicus [3] (ED50) was put at a dose of 5.7 mg/kg.

The compound `O=C(O)/C=C/c1ccc(Cn2ccnc2)cc1` [OZAGREL] showed a pIC50 in the test filed under Homo sapiens of 5.48.

By pIC50 is commonly meant −log10 of the IC50, conventionally taken in molar units. A lower pIC50 goes with a high IC50. In general, IC50 refers to the concentration at which inhibition is half-maximal. A word on the ED50: it is the dose at which the effect has come halfway, by size or by number of responders. Lower therefore signals greater potency.
